Measured values from ChEMBL document CHEMBL1221220, “Transport and signaling via the amino acid binding site of the yeast Gap1 amino acid transceptor” (Nat Chem Biol, 2009).
Substitutions are numbered along the chain they refer to. Active and inactive are the calls of the source. The calls are words filed in the database; no cut-off is given here.

Experiments:
[1] = tested on: T1, General amino-acid permease GAP1 (Saccharomyces cerevisiae), P19145 [A385C]; assay: Activation of yeast Gap1 A385C mutant-mediated amino acid uptake at 10 mM
T1 sequence (whole entry): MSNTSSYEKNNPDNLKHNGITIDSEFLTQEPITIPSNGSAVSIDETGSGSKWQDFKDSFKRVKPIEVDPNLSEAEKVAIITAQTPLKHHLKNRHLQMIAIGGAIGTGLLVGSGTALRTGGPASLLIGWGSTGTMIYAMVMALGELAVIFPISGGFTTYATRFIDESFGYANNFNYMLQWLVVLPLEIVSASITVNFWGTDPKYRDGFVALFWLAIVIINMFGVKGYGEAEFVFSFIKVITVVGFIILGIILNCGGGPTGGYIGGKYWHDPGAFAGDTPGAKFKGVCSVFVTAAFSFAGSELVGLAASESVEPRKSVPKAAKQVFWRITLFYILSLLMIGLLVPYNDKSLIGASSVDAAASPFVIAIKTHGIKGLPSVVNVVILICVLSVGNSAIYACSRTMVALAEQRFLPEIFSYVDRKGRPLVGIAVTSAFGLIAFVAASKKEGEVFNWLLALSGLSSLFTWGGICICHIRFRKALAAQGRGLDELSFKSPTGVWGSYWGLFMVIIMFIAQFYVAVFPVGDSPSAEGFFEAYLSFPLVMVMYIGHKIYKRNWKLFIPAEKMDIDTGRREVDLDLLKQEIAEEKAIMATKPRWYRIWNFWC

[2] = tested on: T2, General amino-acid permease GAP1 (Saccharomyces cerevisiae), P19145 [A405C]; assay: Activation of yeast Gap1 A405C mutant-mediated amino acid uptake at 10 mM
T2 sequence (whole entry): T1 sequence (whole entry) with C385A, A405C

[3] = tested on: T3, General amino-acid permease GAP1 (Saccharomyces cerevisiae), P19145 [G390C]; assay: Induction of yeast Gap1 G390C mutant-mediated trehalose activation at 10 mM
T3 sequence (whole entry): T1 sequence (whole entry) with C385A, G390C

[4] = tested on: T4, General amino-acid permease GAP1 (Saccharomyces cerevisiae), P19145 [N391C]; assay: Induction of yeast Gap1 N391C mutant-mediated amino acid uptake at 2 mM in presence of 10 mM MTSEA treated before compound addition
T4 sequence (whole entry): T1 sequence (whole entry) with C385A, N391C

Activity [1]: inactive | Activity [2]: inactive | Activity [3]: inactive | Activity [4]: Active
Structure (SMILES): NC(=O)NCCC[C@H](N)C(=O)O
